# Test results as given in PubChem BioAssay (NCI).
# Several values for one entry are separate records, joined by “and”; a condition that tells them apart may be missing. Identical values can stand only once.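 Where inhibition never reached the appropriate level, the endpoint shown equals the highest concentration tested. Otherwise, values were interpolated linearly from a five-concentration, 48-hour dose response in 96-well plates. Here, GI50 denotes the concentration required for 50% inhibition of growth. Definition used: TGI = concentration required for complete inhibition of growth.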
# Experiments:
# Test in all cases: NCI-60 cell line screen, 48 h
# HS 578T breast = tested on: HS 578T breast
# MDA-MB-435 = tested on: MDA-MB-435
# NCI/ADR-RES ovarian = tested on: NCI/ADR-RES ovarian
# PC-3 prostate = tested on: PC-3 prostate
Structure (SMILES),GI50 (HS 578T breast),TGI (HS 578T breast),GI50 (MDA-MB-435),TGI (MDA-MB-435),GI50 (NCI/ADR-RES ovarian),TGI (NCI/ADR-RES ovarian) [µM],GI50 (PC-3 prostate),TGI (PC-3 prostate)
CNCCCn1cc(C2=C(c3cn(C)c4ccccc34)C(=O)NC2=O)c2ccccc21,2.06 µM,9.64 µM,3.31 µM,6.9 µM,14.1 µM,25,4.01 µM,14.6 µM
Clc1ccc2c(NCCCNc3nccc(Nc4ccc(Br)cc4)n3)ccnc2c1,,,1.55 µM,2.92 µM,1.79 µM,3.42,1.74 µM,3.56 µM
O=C(Nc1ccc(OS(=O)(=O)c2ccccc2)cc1)C12CC3CC(CC(C3)C1)C2,7.29 µM,> 100 µM,> 100 µM,> 100 µM,5.75 µM,> 100,2.9 µM,> 100 µM
C[As](C)SC1OC(CO)C(O)C1O (stereo not drawn),0.968 µM,7.59 µM,0.154 µM,0.746 µM,0.825 µM,5.75,0.656 µM,9.79 µM
CCCCc1c(OC)cc(O)c2c1C(=O)c1[nH]c(C(=O)O)c(O)c(=O)c1C2=O,,8.14 µM,,> 100 µM,,93.7,,> 100 µM
CC1OC2CC(=O)OC2C2=C1C(=O)c1c(O)cccc1C2=O (stereo not drawn),0.261 µM,,0.0493 µM,0.214 µM,0.0892 µM,0.646,0.242 µM,0.965 µM
CCC[CH2][Sn]([CH2]CCC)([CH2]CCC)[O]C(=O)CC,0.18 µM,0.708 µM,0.178 µM,0.458 µM,0.37 µM,> 100,0.189 µM,0.426 µM
O=C(OCc1ccc2cccc(O)c2n1)N1CCN(C(=O)c2cc3cc(F)ccc3[nH]2)CC1,1.42 µM,5.72 µM,1.19 µM,2.8 µM,1.76 µM,6.07,0.513 µM,2.02 µM
Cc1nnc(S(=O)(=O)c2ccc(N=Nc3c(N)nc(N)nc3N)cc2)s1,,> 100 µM,,> 100 µM,,> 100,,> 100 µM
COc1ccc(C(=O)c2cc(OC)c(C)c(OC)c2)cc1OC(=O)CCl,0.314 µM,> 100 µM,0.0265 µM,0.0902 µM,0.181 µM,4.38,0.275 µM,> 100 µM
CCOc1nc(-c2ccccc2)cc2c(O)c(-c3nnco3)[nH]c(=O)c12,5.39 µM,30.1 µM,8.48 µM,> 100 µM,3.4 µM,> 100,4.3 µM,> 100 µM
Cc1c2cccnc2c(C)c2c1c1cc(CO)ccc1n2C,3.38 µM,34.5 µM,3.06 µM,13.7 µM,1.3 µM,8.51,2.67 µM,33 µM
CCOC(=O)/C=C/C(C(=O)/C=C/c1ccc(OC2CCCCO2)c(OC)c1)=C(O)\C=C\c1ccc(OC2CCCCO2)c(OC)c1 (stereo not drawn),12.3 µM,80.5 µM,3.23 µM,13.6 µM,10.6 µM,46.3,3.85 µM,> 100 µM
COc1ccc2c(c1)C(C)Cc1c(Cl)ncnc1N2C (stereo not drawn),0.533 µM,38.1 µM,0.355 µM,1.81 µM,0.388 µM,11.2,0.424 µM,> 59.1 µM
COc1ccc2c(c1)CCC1C2CC[C@@]2(C)C1CC1=CC(COC(C)=O)C3C(=O)c4ccccc4C(=O)C3C12 (stereo partly drawn),89 µM,> 100 µM,> 100 µM,> 100 µM,> 100 µM,> 100,48.4 µM,> 100 µM
O=c1c2ccccc2[se]n1-c1cccnc1,,42.1 µM,,46.4 µM,,> 100,,48.6 µM
CNCCNc1c2c(c(NCCNC)c3c(CN(C)C)c[nH]c13)C(=O)c1ccccc1C2=O,1.7 µM,7.92 µM,2.5 µM,10.7 µM,12.7 µM,40.2,0.969 µM,5.64 µM
COc1ncnc(C2CC2)c1-c1ncc2cnn(Cc3ccc(-c4nc(C(F)(F)F)cn4C(C)C)cc3)c2n1,17.8 µM,> 100 µM,19.8 µM,51.6 µM,15.6 µM,82.6,17.5 µM,> 100 µM
CC(=O)OC1Oc2ccccc2-c2oc(=O)c(-c3cc(=O)oc4cc(O)ccc34)cc21 (stereo not drawn),17.9 µM,52 µM,18.4 µM,54.4 µM,18.1 µM,44.6,16.2 µM,55.6 µM

Structure (SMILES),GI50 (HS 578T breast),TGI (HS 578T breast),GI50 (MDA-MB-435),TGI (MDA-MB-435),GI50 (NCI/ADR-RES ovarian),TGI (NCI/ADR-RES ovarian) [µM],GI50 (PC-3 prostate),TGI (PC-3 prostate)
CC[C@]12C=CCN3CC[C@@]4(c5ccc(OC)cc5N(C)[C@H]4[C@@](O)(C(=O)OC)[C@@H]1OC(=O)CCC[P+](c1ccccc1)(c1ccccc1)c1ccccc1)[C@@H]32,1.21 µM and 1.15 µM,6.71 µM and 5.07 µM,0.239 µM and 0.348 µM,0.879 µM and 1.23 µM,> 50 µM and 68.9 µM,> 100,0.224 µM and 0.345 µM,5.13 µM and 2.59 µM
COC(=O)c1cc2c(cc1O)[C@@H](NC(C)=O)CCc1cc(OC)c(OC)c(OC)c1-2,,0.0481 µM,< 0.01 µM,1.23 µM,0.0596 µM,,0.015 µM,> 100 µM
Oc1[nH]c2ccccc2c1N=Nc1ccccc1Cl,,> 100 µM,,> 100 µM,,> 100,,> 100 µM
C/C(=C\CCc1ccoc1)CC/C=C(\C)CCCC1=CC(=O)OC1,3.26 µM,36 µM,5.76 µM,34.1 µM,5.42 µM,31,3.2 µM,24.9 µM
COC(=O)/C=C/c1cc(O)c2oc(-c3ccc(O)c(O)c3)c(C(=O)OC)c2c1,0.405 µM,9.18 µM,0.0295 µM,0.108 µM,0.134 µM,6.63,0.437 µM,13.1 µM
Oc1ccc(Cl)cc1Cc1cc(Cl)cc(Cl)c1O,2.61 µM,8.97 µM,4.35 µM,83.2 µM,3.29 µM,10,3.59 µM,15.5 µM
CC(C)(C)C(=O)OCOP(=O)(OCOC(=O)C(C)(C)C)C1CCCN(O)C1=O (stereo not drawn),0.314 µM,8.27 µM,0.955 µM,22.5 µM,0.434 µM,3.55,2.02 µM,> 100 µM
NC(=NCCCOc1ccc(Cl)cc1)Nc1ccc(C(F)(F)F)cc1,3.35 µM,18.8 µM,1.73 µM,3.45 µM,2.35 µM,7.27,1.67 µM,5.25 µM
CC(C)c1ccc(Nc2ccc3c(OCCCN4CCN(C)CC4)cccc3n2)cc1,16.9 µM,40.3 µM,6.62 µM,21.4 µM,15.9 µM,32.9,12.9 µM,31.4 µM
Ic1ccc(Nc2nc3nonc3nc2Nc2ccc(I)cc2)cc1,0.329 µM,2.21 µM,,,0.313 µM,> 100,0.186 µM,> 100 µM
Clc1coc2nc3ccccc3c(Nc3ccc4c(c3)OCO4)c12,1.89 µM,5.37 µM,0.62 µM,1.46 µM,0.512 µM,8.01,1.93 µM,13.5 µM
C=C(C=O)C1CCC2(C(=O)O)CCC3(C)C(CCC4C5(C)CCC(O)C(C)(C)C5CCC43C)C12 (stereo not drawn),10.1 µM,> 100 µM,2.74 µM,24.3 µM,1.79 µM,5.57,2.76 µM,23.2 µM
Cc1ccc(C(SCC(N)C(=O)O)(c2ccccc2)c2ccc(C)cc2)cc1 (stereo not drawn),0.0485 µM,2.17 µM,0.0323 µM,0.14 µM,1.14 µM,11.6,0.314 µM,30.4 µM
C=C(F)C(=O)N1CCN(c2nc(OC[C@@H]3CCCN3C)nc3c2CCN(c2cccc4cccc(Cl)c24)C3)C[C@@H]1CC#N,1.76 µM,4.4 µM,0.961 µM,2.22 µM,0.601 µM,3.19,0.855 µM,2.44 µM
Cn1cc(C2=C(c3ccc4ccccc4c3)C(=O)NC2=O)c2ccccc21,> 17.7 µM,> 25 µM,0.885 µM,> 13.6 µM,> 23.9 µM,> 25,> 25 µM,> 25 µM
CC(C)=C[C@@H]1C[C@H](C)[C@H]2CC[C@H](C)C3=C2[C@](O)(OC3=O)[C@]1(C)O,> 100 µM,> 100 µM,> 100 µM,> 100 µM,> 100 µM,> 100,> 100 µM,> 100 µM
O=C(c1ccccc1)c1cc(Cl)ccc1OCCCCN1CCN(CCCCOc2ccc(Cl)cc2C(=O)c2ccccc2)CC1,2.19 µM,4.43 µM,3.65 µM,11.9 µM,2.93 µM,12,3.59 µM,13.5 µM
C[C@H]1c2cccc(O)c2C(O)=C2C(=O)[C@]3(O)C(O)=C(C(N)=O)C(=O)[C@@H](N(C)C)[C@@H]3[C@@H](O)[C@@H]21,3.42 µM,27 µM,3.01 µM,12.6 µM,6.18 µM,85.3,3 µM,12.8 µM
